Records with an inconclusive call do not appear.
Molecular target: Virion infectivity factor (Human immunodeficiency virus type 1 group M subtype B (isolate BH10)) + Virion infectivity factor (Human immunodeficiency virus type 1 group M subtype B (isolate BRU/LAI)) + Virion infectivity factor (Human immunodeficiency virus type 1 group M subtype B (isolate PCV12)) + Virion infectivity factor (Human immunodeficiency virus type 1 group M subtype B (isolate HXB2)) + DNA dC->dU-editing enzyme APOBEC-3G (Homo sapiens) (UniProt P69720+P69721+P69722+P69723+Q9HC16)
Assay: inhibitors of Vif binding to APOBEC3G peptide, primary screen, biochemical, TR-FRET, GST-Vif 1-94, biotin-A3G peptide, dose response retest (AID 1117319);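 also: Vif residues 1-94 fused to GST binding biotinylated APOBEC3G peptide 110-148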

Compound	IC50 [µM]
N=C1/C(=C\c2ccc(SCc3ccco3)o2)C(=O)N=C2SC=NN12	1.21
CC1(C)C/C(=C(/C#N)C(N)=O)CCO1	80.7
C=C(C)C(=O)Nc1cccc(C2=NOC3(C2)C[C@@H](C(N)=O)N(C(=O)/C=C/CC)C3)c1 (stereo partly drawn)	3.32
COc1ccc(NC(=O)/C(C#N)=C\c2ccc(Br)o2)cc1	6.29
Cc1[nH]c2ccccc2c1Cc1nnc(SCc2ccccc2)o1	70.8
CC(C)C(=O)Nc1nnc(Sc2ccc(N(C)C)cc2)s1	54.8
CCOc1ccc(CCNC(=O)C2CC(C)=CCC2C(=O)O)cc1OCC (stereo not drawn)	56.6
C=CCn1c(SCC(=O)NCCCC)nc2scc(-c3ccco3)c2c1=O	20.4
COc1cccc(-c2nn3c(-c4ccccn4)nnc3s2)c1	81.3
CCn1c(SCC(=O)NCc2ccco2)nnc1-c1cccs1	95.8
O=C(O)CCCCC1CCSS1 (stereo not drawn)	7.67
Cc1cc(C)c2c(=N)c3ccccc3n(CCCCCCCCn3c4ccccc4c(=N)c4c(C)cc(C)nc43)c2n1	1.46
NCCc1c[nH]c2ccccc12	1.66
CC(=O)Nc1ccc(NC(=O)CSCc2cnn(-c3ccccc3)c2-n2cccc2)cc1	25.9
COc1cccc(-n2c(/C=C/c3ccc(O)c(O)c3)nc3ccccc3c2=O)c1	10.7
O=C(Nc1nc(-c2ccco2)c(-c2ccco2)s1)C1CCC1	1.93
CCN1/C(=C(\O)c2ccccc2)C(=O)c2ccccc2S1(=O)=O	55
CCN1CCN(c2cc(N3CCN(C(=O)c4ccco4)CC3)c3c4c(onc24)-c2ccccc2C3=O)CC1	3.06
COC(=O)c1ccc(CC(=O)c2c(C)cc(O)cc2O)o1	2.33
Cc1c(C(=O)O)cccc1-n1c(C)cc(/C=N/Nc2ccc([N+](=O)[O-])cn2)c1C	12.6
O=C1NC(=S)N/C1=C/c1ccc(-c2c(Br)cc([N+](=O)[O-])cc2Br)o1	39
CCOC(=O)C1CCN(C(=O)COc2ccc(S(=O)(=O)NC(C)C)cc2)CC1	27.8
c1coc(-c2nc(-c3ccco3)c(-c3ccco3)nc2-c2ccco2)c1	0.35

Compound	IC50 [µM]
COC(=O)COc1ccc(S(=O)(=O)Nc2cc(OC)ccc2OC)cc1	5.05
CCOC(=O)C1=C(N)n2c(s/c(=C/c3ccco3)c2=O)=C(C(=O)OC)C1c1ccco1 (stereo not drawn)	2.17
Cc1c(C)n(C(=O)CSc2nc3ccccc3[nH]2)c2ccccc12	39.7
COC(=O)CSc1nnc(CNC(=O)Cc2ccccc2)n1-c1ccccc1OC	77.7
COC/C=C/C1=CC2=CC(=O)C(C)(OC(=O)CCC(=O)OC)C(=O)C2=CO1 (stereo not drawn)	1.35
CCOC(=O)COc1nc(-c2ccco2)cc(-c2ccco2)c1C#N	5.83
COc1cc2c(cc1OC)C(=O)C(Br)CC2 (stereo not drawn)	1.48
CCOc1cc(N2CCOCC2)c(OCC)cc1NC(=O)CSc1ncn[nH]1	11.9
Nc1nc(-c2ccco2)c(-c2ccco2)s1	0.83
O/N=C1\CCC\C1=C/c1ccco1	7.57
CC1=CC(C)(C)Nc2ccc(OC(=O)CN3C(=O)c4cccc5cccc(c45)C3=O)cc21	1.99
COc1ccc(CN2C(=O)NC(=O)/C(=C/c3ccc([N+](=O)[O-])s3)C2=O)cc1	14.5
O=C(CSc1nnc(-c2ccco2)c(-c2ccco2)n1)Nc1ccccc1	3.12
O=C1CC=C2C3CC4N(CCC45c4cc(O)c(O)cc4N1C25)CC3=CCBr (stereo not drawn)	0.7
CCn1c(SCC(=O)Nc2cc(C)on2)nnc1-c1cccnc1	9.51
CCOC(=O)C1CCN(C(c2cccs2)c2sc3nc(C)nn3c2O)CC1 (stereo not drawn)	55.7
COc1ccc2c(c1)c1ccc3c(c1n2C)C(=O)C=CC3=O	2.42
O=[N+]([O-])c1ccc2c([N+](=O)[O-])ccc3c2c1CC3	12.2
CCc1cccc(NC(=O)CCCCCC2NC(=O)NC2C)c1 (stereo not drawn)	0.47
CCC(C)(C)n1nnnc1C(c1ccc2ncccc2c1)N1CCN(c2ccc(O)cc2)CC1 (stereo not drawn)	4.65
O=C(O)Cc1ccc(N=Nc2c(O)c(C(=O)O)cc3ccccc23)cc1	10.5
O=C1CC(c2ccco2)CC(O)=C1C=NCC1CCNCC1 (stereo not drawn)	13.5
CC1COCC(C)N1C1=C(Cl)C(=O)c2ccccc2C1=O (stereo not drawn)	11

Compound	IC50 [µM]
CC1(C)N([O-])c2cc([N+](=O)[O-])ccc2[N+]1=O	9.68
COc1cc(C(=O)NCc2nnc(SCC(=O)Nc3nc4ccc(C)cc4s3)o2)cc(OC)c1OC	45.3
Cc1ccc2cc(CN(Cc3nnnn3Cc3ccco3)CC3CCCO3)c(=O)[nH]c2c1C (stereo not drawn)	34.4
CN(C)c1ccc(NC(=O)CSc2nc3ccccc3c(=O)n2C2CCCCC2)cc1	21.7
O=C(NCCc1c[nH]c2ccccc12)c1ccc(S(=O)(=O)NCc2ccco2)cc1	33.3
COC(=O)C1=C(C)NC(=O)/C1=C\c1ccco1	6.12
COc1ccc2c(c1)c(=O)oc1cc(OCC(=O)N3CCC(C)CC3)ccc12	54.6
CC1(C)CC(=O)C2=C(C1)NCN(Cc1ccc3c(c1)OCO3)C2	91.6
COc1cccc(CNCCc2c[nH]c3ccccc23)c1OCc1ccccc1	56
Cc1nn(Cc2ccccc2)c(C)c1C(=O)OCC(=O)c1cc(C)n(C2CC2)c1C	80.5
O=C1CC(c2ccco2)CC(O)=C1C=Nc1cc(Cl)ccc1Cl (stereo not drawn)	4.07
COCOC1CCC2C3CCC4=CC(=O)CCC4=C3C=CC12C (stereo not drawn)	23.2
CN(C(=S)Nc1cccnc1)c1ccc(O)cc1	1.85
COc1cc2[nH]c(Cl)c([N+](=O)[O-])c2cc1OC	3.81
O=S(=O)(O)c1cc(O)c(N=Nc2ccc(O)cc2O)c2ccccc12	5.25
CC(/C=C/c1ccco1)=N\NC(=O)c1cccnc1	20.3
CCCCNC(=O)c1ccc2nc(-c3ccco3)c(-c3ccco3)nc2c1	1.19
CC1=C(C#N)C(=O)N(C2CCS(=O)(=O)C2)C(=O)/C1=C\c1ccc(C)o1 (stereo not drawn)	1.42
COc1ccccc1NC(=O)c1cc2ccccc2o/c1=N\O	67.4
COc1ccc(OC)c(C2C(C(=O)Nc3ccc(F)cc3)=C(C)Nc3nc(CCCO)nn32)c1 (stereo not drawn)	54.6
Cc1cc(C(=O)Nc2sc3c(c2C#N)CCCCC3)cs1	95.9
c1cncc(-c2nnc3sc(-c4ccco4)nn23)c1	28.3
CC(C)(C)NC(=O)C(c1ccncc1)N(C(=O)CNC(=O)c1ccco1)c1ccc2c(c1)OCO2 (stereo not drawn)	11.3

Compound	IC50 [µM]
C/C(=N\O)C(=O)NCc1ccccn1	77.5
O=C1/C(=C/c2ccco2)SC(=S)N1C1CCS(=O)(=O)C1 (stereo not drawn)	3.88
CSc1ccccc1NC(=O)c1noc2c1CCC2	18.4
COc1ccc(-c2cc(C(=O)N/N=C/c3ccc(OC)c(COCC(F)(F)C(F)F)c3)c3ccccc3n2)c(OC)c1	26.2
Cc1ccc(/C=C/C(=O)Nc2cccc(S(=O)(=O)N3CCOCC3)c2)o1	20.9
Oc1ccc(/C=N/N=C/c2ccc(O)c(O)c2)cc1O	4.82
Cc1cccc(C)c1NC(=O)c1ccc(-n2cnnn2)cc1	35.8
CC(=O)c1ccc(NC(=O)c2ccc3nc(-c4ccco4)c(-c4ccco4)nc3c2)cc1	1.38
S=c1[nH]nc(COc2ccc3c(c2)OCO3)n1-c1ccccc1	48.3
COc1ccc(NCc2nc3ccccc3n2CCOc2ccccc2)cc1	49
COc1ccc(CCNC(=O)CN2CCCc3ccccc32)cc1OC	91
CN=c1scc(C)n1/N=C/c1ccc(O)c(O)c1O	< 1.84
CC1=C(SCc2ccccc2)C(=O)c2ccccc2C1=O	58.1
O=C(NNC(=O)c1ccccc1F)c1cccc(-n2cccc2)c1	8.55
CCN(C(=O)c1coc(=O)c(Br)c1)c1ccc2c(c1)OCO2	1.06
O=C1NC(=O)C(=Cc2ccco2)C(=O)N1	19.9
O=C(O)c1cccc2cccc(-c3c4ccc(=O)c(O)c-4oc4c(O)c(O)ccc34)c12	0.53
NC(=O)c1c(NC(=O)c2ccc(S(=O)(=O)N3CCOCC3)cc2)sc2c1CCCCC2	98.3
CCOC(=O)CSc1nc2c(sc(=S)n2-c2ccccc2OC)c(=O)n1Cc1ccco1	27.2
O=C1Cc2cccc(=O)c(O)c2C(=O)O1	14
CCOC(=O)Cc1cc(=O)n2[nH]c(C)cc2n1	75.3
Cc1cc(C(=O)O)ccc1-n1c(C)ccc1C	5.16
O=C(N/N=C/c1cccnc1)c1cc(O)c(O)c(O)c1	21.7

Compound	IC50 [µM]
COC1=C(N)C(=O)c2nc(C)ccc2C1=O	18.3
O=C1C2CCCN2C(c2ccc(Cl)cc2)N1c1ccccn1 (stereo not drawn)	84.7
NC(=O)c1cc(N)ccc1N1CCCC1	1.12
COc1ccc(OCCOC(=O)c2cccc(-n3cnnn3)c2)cc1	93.6
COc1cc(NCCCNC(C)C)c2nccc(C)c2c1	52.8
Cc1ncc(CO)c(/C=N/NC(=O)c2cc(O)c(O)c(O)c2)c1O	2.45
Cn1cnnc1SCC(=O)Nc1ncc([N+](=O)[O-])s1	36.1
CC(C)CCNC(=O)c1ccc2c(SCC(=O)O)c3c(nc2c1)CCC3	59.8
COc1cc(/C=C2\CC/C(=C\c3cc(OC)c(O)c(OC)c3)C2=O)cc(OC)c1O	1.56
O=C1c2ccccc2C(=O)N1/N=C/c1ccc(O)c(O)c1O	4.54
NC1=NC(=O)/C(=C\c2ccco2)S1	3.07
O=C(NCCO)c1ccc2nc(-c3ccco3)c(-c3ccco3)nc2c1	0.88
Cc1cc(C)cc(Nc2ccc(C(=O)O)cc2N)c1	26.1
COC(=O)c1ccccc1NC(=O)c1noc2c1CCC2	26
CN(C)c1ncc(C2=C(Cl)C(=O)C(N3CCCC3)=C(Cl)C2=O)s1	0.38
O=C(C1CCCN1S(=O)(=O)c1cccc2cccnc12)N1CCN(c2ccccc2)CC1 (stereo not drawn)	40.2
COc1ccc(NC(=O)c2ccccc2NC(=O)CSc2ccc(Cl)cc2)cc1	57.7
CN(C)c1ccc(O)c2c1CC1CC3[C@@H](N(C)C)C(=O)C(C(N)=O)=C(O)[C@]3(O)C(=O)C1=C2O (stereo partly drawn)	1.07
COC(=O)c1cnn2c(C(F)(F)F)cc(-c3ccco3)nc12	7.16
CC1CCN(Cc2c(O)ccc3c2O/C(=C\c2ccco2)C3=O)CC1	3
Nc1ncnc2oc(-c3ccco3)c(-c3ccco3)c12	0.55
